# Measurements published in ChEMBL document CHEMBL6078667, “Synthesis, Biological Evaluation, and Mechanistic Insights of Rubrolide Analogues as Antitumor Agents” (J Nat Prod, 2024).
# Activity calls are given as the source filed them. The calls are words filed in the database; no cut-off is given here.
# Experiments:
# HeLa [1] = assay: Cytotoxicity against human HeLa cells assessed as inhibition of cell growth incubated for 72 hrs by MTT assay; type: functional, cell-based
# HCT-116 [2] = assay: Induction of apoptosis in human HCT-116 cells assessed as late apoptotic cells at 0.2 uM incubated for 24 hrs by Annexin V-FITC/PI staining based analysis (reference value: 0.095 %); type: functional
# HeLa [3] = assay: Induction of apoptosis in human HeLa cells assessed as necrotic cells at 0.2 uM incubated for 24 hrs by Annexin V-FITC/PI staining based flow cytometric analysis (reference value: 0.44 %); type: functional
# HeLa [4] = assay: Induction of apoptosis in human HeLa cells assessed as viable cells at 0.4 uM incubated for 24 hrs by Annexin V-FITC/PI staining based flow cytometric analysis (reference value: 90.6 %); type: functional; details: read-out: Activity
# HCT-116 [5] = assay: Cell cycle arrest in human HCT-116 cells assessed as accumulation of cells at G0/G1 phase at 0.2 uM measured after 24 hrs by PI staining based flow cytometric analysis (reference value: 51.3 %); type: functional
# HCT-116 [6] = assay: Cell cycle arrest in human HCT-116 cells assessed as accumulation of cells at G0/G1 phase at 0.4 uM measured after 24 hrs by PI staining based flow cytometric analysis (reference value: 51.3 %); type: functional
# [7] = Cytotoxicity against HHL-5 cells assessed as inhibition of cell growth incubated for 72 hrs by MTT assay; type: toxicity, cell-based; details: human
# [8] = Drug localization in human HeLa cell endoplasmic reticulum incubated for 8 hrs by […] dye based fluorescence microscopic analysis; type: ADME, subcellular
# U-87 MG [9] = assay: Cytotoxicity against human U-87 MG cells assessed as survival rate at 10 uM measured after 72 hrs by MTT assay relative to control; type: functional, U-87MG ATCC; details: read-out: Survival
# HeLa [10] = assay: Induction of apoptosis in human HeLa cells assessed as viable cells at 0.2 uM incubated for 24 hrs by Annexin V-FITC/PI staining based flow cytometric analysis (reference value: 90.6 %); type: functional; details: read-out: Activity
# HCT-116 [11] = assay: Induction of ROS production in human HCT-116 cells at 0.2 to 0.4 uM incubated for 24 hrs by DCFH-DA probe based flow cytometric analysis; type: functional, cell-based; details: dose 0.2-0.4 µM
# HCT-116 [12] = assay: Induction of apoptosis in human HCT-116 cells assessed as viable cells at 0.4 uM incubated for 24 hrs by Annexin V-FITC/PI staining based analysis (reference value: 92.4 %); type: functional; details: read-out: Activity
# HeLa [13] = assay: Cell cycle arrest in human HeLa cells assessed as accumulation of cells at G0/G1 phase at 0.4 uM measured after 24 hrs by PI staining based flow cytometric analysis (reference value: 54.7 %); type: functional
# HCT-116 [14] = assay: Upregulation of phosphorylated PERK expression in human HCT-116 cells at 0.2 to 0.4 uM measured after 48 hrs by Western blot analysis; type: functional, cell-based; details: dose 0.2-0.4 µM
# MCF7 [15] = assay: Cytotoxicity against human MCF7 cells assessed as inhibition of cell growth at 10 uM measured after 72 hrs by MTT assay relative to control; type: functional
# HeLa [16] = assay: Antitumor activity against human HeLa cells xenografted in female BALB/c nude mouse assessed as reduction in tumor cell growth administered intraperitoneally as liposome formulation once daily for 13 days; type: functional; details: dose 5-20 mg/kg, route ip, time 13.0 day
# HeLa [17] = assay: Upregulation of CHOP expression in human HeLa cells at 0.2 to 0.4 uM measured after 48 hrs by Western blot analysis; type: functional, cell-based; details: dose 0.2-0.4 µM
# MGC-803 = assay: Cytotoxicity against human MGC-803 cells assessed as inhibition of cell growth at 10 uM measured after 72 hrs by MTT assay relative to control; type: functional
# HeLa [18] = assay: Induction of apoptosis in human HeLa cells assessed as late apoptotic cells at 0.4 uM incubated for 24 hrs by Annexin V-FITC/PI staining based flow cytometric analysis (reference value: 6.58 %); type: functional
# MKN-45 = assay: Cytotoxicity against human MKN-45 cells assessed as inhibition of cell growth at 10 uM measured after 72 hrs by MTT assay relative to control; type: functional
# HeLa [19] = assay: Cell cycle arrest in human HeLa cells assessed as accumulation of cells at G0/G1 phase at 0.2 uM measured after 24 hrs by PI staining based flow cytometric analysis (reference value: 54.7 %); type: functional
# MCF7 [20] = assay: Cytotoxicity against human MCF7 cells assessed as survival rate at 10 uM measured after 72 hrs by MTT assay relative to control; type: functional; details: read-out: Survival
# HeLa [21] = assay: Upregulation of phosphorylated PERK expression in human HeLa cells at 0.2 to 0.4 uM measured after 48 hrs by Western blot analysis; type: functional, cell-based; details: dose 0.2-0.4 µM
# HCT-116 [22] = assay: Cell cycle arrest in human HCT-116 cells assessed as accumulation of cells at G2/M phase at 0.2 uM measured after 24 hrs by PI staining based flow cytometric analysis (reference value: 26.4 %); type: functional
# HeLa [23] = assay: Induction of apoptosis in human HeLa cells assessed as necrotic cells at 0.4 uM incubated for 24 hrs by Annexin V-FITC/PI staining based flow cytometric analysis (reference value: 0.44 %); type: functional
# MCF7 [24] = assay: Cytotoxicity against human MCF7 cells assessed as inhibition of cell growth incubated for 72 hrs by MTT assay; type: functional, cell-based; details: MCF7, 72 h
# [25] = Drug localization in human HCT-116 cell endoplasmic reticulum incubated for 8 hrs by […] dye based fluorescence microscopic analysis; type: ADME, subcellular; details: hct-116, 8 h
# [26] = Toxicity in female BALB/c nude mouse xenografted with human HeLa cells assessed as animal survival at 20 mg/kg, ip administered as liposome formulation once daily for 13 days; type: organism-based; details: in vivo, 312 h, time 13 day
# HeLa [27] = assay: Upregulation of phosphorylated eIF2alpha expression in human HeLa cells at 0.2 to 0.4 uM measured after 48 hrs by Western blot analysis; type: functional, cell-based; details: dose 0.2-0.4 µM
# HeLa [28] = assay: Cytotoxicity against human HeLa cells assessed as inhibition of cell growth at 10 uM measured after 72 hrs by MTT assay relative to control; type: functional
# HeLa [29] = assay: Cell cycle arrest in human HeLa cells assessed as increase in cyclin B1 expression at 0.2 to 0.4 uM incubated for 24 hrs by Western blot analysis; type: functional, cell-based; details: dose 0.2-0.4 µM
# HCT-116 [30] = assay: Upregulation of phosphorylated eIF2alpha expression in human HCT-116 cells at 0.2 to 0.4 uM measured after 48 hrs by Western blot analysis; type: functional, cell-based; details: dose 0.2-0.4 µM
# HCT-116 [31] = assay: Induction of ROS production in human HCT-116 cells assessed as fold change at 0.2 to 0.4 uM incubated for 24 hrs by DCFH-DA probe based flow cytometric analysis; type: functional; details: dose 0.2-0.4 µM
# U-87 MG [32] = assay: Cytotoxicity against human U-87 MG cells assessed as inhibition of cell growth incubated for 72 hrs by MTT assay; type: functional, cell-based, U-87MG ATCC
# [33] = Selectivity index, ratio of IC50 for HHL-5 cells to IC50 for human HeLa cells; type: toxicity; details: HHL-5 cells and HeLa cells, pooled result: one value given for 6 cell lines, strains, targets or settings, read-out: Ratio IC50
# HeLa [34] = assay: Induction of apoptosis in human HeLa cells assessed as late apoptotic cells at 0.2 uM incubated for 24 hrs by Annexin V-FITC/PI staining based flow cytometric analysis (reference value: 6.58 %); type: functional
# HCT-116 [35] = assay: Induction of apoptosis in human HCT-116 cells assessed as early apoptotic cells at 0.2 uM incubated for 24 hrs by Annexin V-FITC/PI staining based analysis (reference value: 7.40 %); type: functional
smiles,measurement,setting,value
COc1ccc(C2=CC(=O)O/C2=C\c2ccc(O)cc2)cc1,IC50,HeLa [1],200 nM
same,Activity,HCT-116 [2],7.71%
same,Activity,HeLa [3],0.44%
same,viability at 0.4 µM,HeLa [4],47.9%
same,Activity,HCT-116 [5],38.8%
same,Activity,HCT-116 [6],23.2%
same,IC50 at 72 h,[7],6300 nM
same,Drug uptake,[8],Active
same,viability at 10 µM,U-87 MG [9],12.4%
same,viability at 0.2 µM,HeLa [10],83.2%
same,Activity,HCT-116 [11],Active
same,viability at 0.4 µM,HCT-116 [12],69.6%
same,Activity,HeLa [13],8.71%
same,Activity,HCT-116 [14],Active; Compound Impacts Endoplasmic Reticulum Stress Related Perk-Eif2Alpha-Chop Signalling Pathway
same,inhibition at 10 µM,MCF7 [15],> 50%
same,Activity,HeLa [16],Dose-dependent-effect
same,Activity,HeLa [17],Active; Compound Impacts Endoplasmic Reticulum Stress Related Perk-Eif2Alpha-Chop Signalling Pathway
same,inhibition at 10 µM,MGC-803,> 50%
same,Activity,HeLa [18],40.6%
same,inhibition at 10 µM,MKN-45,> 50%
same,Activity,HeLa [19],18.8%
same,viability at 10 µM,MCF7 [20],24.8%
same,Activity,HeLa [21],Active; Compound Impacts Endoplasmic Reticulum Stress Related Perk-Eif2Alpha-Chop Signalling Pathway
same,Activity,HCT-116 [22],22.8%
same,Activity,HeLa [23],1%
same,IC50,MCF7 [24],1000 nM
same,Drug uptake,[25],Active
same,Activity,[26],Non-toxic
same,Activity,HeLa [27],Active; Compound Impacts Endoplasmic Reticulum Stress Related Perk-Eif2Alpha-Chop Signalling Pathway
same,inhibition at 10 µM,HeLa [28],> 50%
same,Activity,HeLa [29],Active
same,Activity,HCT-116 [30],Active; Compound Impacts Endoplasmic Reticulum Stress Related Perk-Eif2Alpha-Chop Signalling Pathway
same,fold change (FC),HCT-116 [31],>4
same,IC50,U-87 MG [32],2400 nM
same,selectivity ratio,[33],2.6
same,Activity,HeLa [34],11.5%
same,Activity,HCT-116 [35],3.69%
